Measurements reported in patent publication US20060292221A1, “TIMED-RELEASE COMPRESSION-COATED SOLID COMPOSITION FOR ORAL ADMINISTRATION” (Astellas Pharma, Inc., priority 2000, published 2006).

Tests used:
[1] = Determination of percentage erosion of core tablet; type: physicochemical; conditions: 3 hours in water at 37° C.; for Percentage erosion (%) of compression-coated tablet containing Compound 1: core: 9 parts Compound 1 solid dispersion + 6 parts of the filler; for Percentage erosion (%) of compression-coated tablets containing acetaminophen: core: 5 parts acetaminophen + 10 parts of the filler
Experimental: A compression-coated tablet containing drug is made in accordance with the method of producing a timed-release compression-coated solid composition disclosed in the present invention, the tablet is moistened for 3 hours in water at 37° C., then the gelled part of the tablet is peeled off and the portion of the core tablet that has not eroded is removed. The core tablet is allowed to dry overnight in a dryer at 40° C. and weight is determined. The value obtained by subtracting dry weight from initial core tablet weight and dividing this by initial core weight is multiplied by 100 to calculate the percentage erosion.
The percentage erosion of the core tablet of both of the above-mentioned pharmaceutical preparations was determined in accordance with the previously described method of determining the percentage erosion of the core tablet.
Then 6 parts by weight of each filler were added to 9 parts by weight of the solid dispersion and mixed with a mortar and pestle. A core tablet of 150 mg per tablet with a diameter of 6.5 mm was obtained under compression force of 500 kg/punch using an oil press. Moreover, 10 parts by weight of each filler were separately added to 5 parts by weight acetaminophen (Yoshitomi Seiyaku) and mixed with a mortar and pestle and core tablets of 150 mg per tablet with a diameter of 6.5 mm were obtained under compression force of 500 kg/punch using an oil press. Furthermore, 75 mg polyethylene oxide (Polyox® WSR303) and 175 mg Macrogol 6000 were mixed with a mortar and pestle as the outer layer. […] This tablet was immersed for 3 hours in water at 37° C. and then the gelated part of the tablet was peeled off and the uneroded core was removed. The core was dried in a dryer overnight at 40° C. and then weighed. The percentage erosion of the core tablet was calculated from the dry weight and initial weight.

[2] = Solubility of each filler (amount of water needed to dissolve 1 g filler)
CYP3A4 [3] = experiment: Test Example 5: midazolam plasma concentration in dogs with concomitant Compound 1; conditions: Experiment 1, midazolam singular administration, oral 4 mg/dog, n=6
CYP3A4 [4] = experiment: Test Example 7: midazolam plasma concentration in dogs with concomitant ketoconazol; conditions: aqueous solution containing ketoconazol with midazolam

SMILES | Percentage erosion (%) of compression-coated tablet containing Compound 1 [1] [%] | Percentage erosion (%) of compression-coated tablets containing acetaminophen [1] [%] | further results
O=C1O[C@H]([C@@H](O)CO)C(O)=C1O [Ascorbic acid] | 32.4 | – | –
N[C@@H](CC(=O)O)C(=O)O [Aspartic acid] | 1.4 | – | –
O=C(O)CC(O)(CC(=O)O)C(=O)O [Citric acid] | 60.3 | – | –
O=C(O)/C=C/C(=O)O [Fumaric acid] | 2.0 | – | Solubility of filler ([2]; Table 3): > 10 mL
OC[C@H]1O[C@@H](O[C@H]2[C@H](O)[C@@H](O)C(O)O[C@@H]2CO)[C@H](O)[C@@H](O)[C@H]1O (some centres unmarked) [Lactose] | 24.0 | 7.6 | –
O=C(O)CC(O)C(=O)O (centres unmarked) [Malic acid] | 75.0 | 79.3 | Solubility of filler ([2]; Table 3): 2 mL; Solubility of filler ([2]; Table 4): 2 mL
Cc1ncc2n1-c1ccc(Cl)cc1C(c1ccccc1F)=NC2 [Midazolam, midazolam] | – | – | Mean AUC of midazolam plasma concentration (CYP3A4 [3]): 9.0 ± 6.0 ngh/ml
O=C(O)CCC(=O)O [Succinic acid] | 19.2 | 12.8 | –
OC[C@H]1O[C@@](CO)(O[C@H]2O[C@H](CO)[C@@H](O)[C@H](O)[C@H]2O)[C@@H](O)[C@@H]1O [Sucrose] | 48.4 | 56.1 | Solubility of filler ([2]; Table 3): 1 mL; Solubility of filler ([2]; Table 4): 1 mL
O=C(O)C(O)C(O)C(=O)O (centres unmarked) [Tartaric acid] | 65.7 | – | –
CC(=O)N1CCN(c2ccc(OCC3COC(Cn4ccnc4)(c4ccc(Cl)cc4Cl)O3)cc2)CC1 (centres unmarked) [ketoconazol] | – | – | increase of average midazolam AUC compared to midazolam singular administration (CYP3A4 [4]): ≤ 4 times
